From patent US20140341922A1, “Method for Overcoming Tolerance to Targeted Anti-Cancer Agent” (SUN R&DB Foundation, priority 2011, published 2014)
Entries after “also recorded” stand apart in the source; their conditions may differ.

Columns and labels:
IGF-1R = molecular target: T1, IGF-1R (Homo sapiens, UniProt P08069); assay: IGF-1-induced IGF-1R phosphorylation, Western blot; type: cell-based; details: LN686 cells, cixutumumab 6 h, then 100 ng/ml IGF-1 for 30 min
T1 construct: endogenous in cells; host or cells: LN686 cells
T1 sequence (P08069 31-1367): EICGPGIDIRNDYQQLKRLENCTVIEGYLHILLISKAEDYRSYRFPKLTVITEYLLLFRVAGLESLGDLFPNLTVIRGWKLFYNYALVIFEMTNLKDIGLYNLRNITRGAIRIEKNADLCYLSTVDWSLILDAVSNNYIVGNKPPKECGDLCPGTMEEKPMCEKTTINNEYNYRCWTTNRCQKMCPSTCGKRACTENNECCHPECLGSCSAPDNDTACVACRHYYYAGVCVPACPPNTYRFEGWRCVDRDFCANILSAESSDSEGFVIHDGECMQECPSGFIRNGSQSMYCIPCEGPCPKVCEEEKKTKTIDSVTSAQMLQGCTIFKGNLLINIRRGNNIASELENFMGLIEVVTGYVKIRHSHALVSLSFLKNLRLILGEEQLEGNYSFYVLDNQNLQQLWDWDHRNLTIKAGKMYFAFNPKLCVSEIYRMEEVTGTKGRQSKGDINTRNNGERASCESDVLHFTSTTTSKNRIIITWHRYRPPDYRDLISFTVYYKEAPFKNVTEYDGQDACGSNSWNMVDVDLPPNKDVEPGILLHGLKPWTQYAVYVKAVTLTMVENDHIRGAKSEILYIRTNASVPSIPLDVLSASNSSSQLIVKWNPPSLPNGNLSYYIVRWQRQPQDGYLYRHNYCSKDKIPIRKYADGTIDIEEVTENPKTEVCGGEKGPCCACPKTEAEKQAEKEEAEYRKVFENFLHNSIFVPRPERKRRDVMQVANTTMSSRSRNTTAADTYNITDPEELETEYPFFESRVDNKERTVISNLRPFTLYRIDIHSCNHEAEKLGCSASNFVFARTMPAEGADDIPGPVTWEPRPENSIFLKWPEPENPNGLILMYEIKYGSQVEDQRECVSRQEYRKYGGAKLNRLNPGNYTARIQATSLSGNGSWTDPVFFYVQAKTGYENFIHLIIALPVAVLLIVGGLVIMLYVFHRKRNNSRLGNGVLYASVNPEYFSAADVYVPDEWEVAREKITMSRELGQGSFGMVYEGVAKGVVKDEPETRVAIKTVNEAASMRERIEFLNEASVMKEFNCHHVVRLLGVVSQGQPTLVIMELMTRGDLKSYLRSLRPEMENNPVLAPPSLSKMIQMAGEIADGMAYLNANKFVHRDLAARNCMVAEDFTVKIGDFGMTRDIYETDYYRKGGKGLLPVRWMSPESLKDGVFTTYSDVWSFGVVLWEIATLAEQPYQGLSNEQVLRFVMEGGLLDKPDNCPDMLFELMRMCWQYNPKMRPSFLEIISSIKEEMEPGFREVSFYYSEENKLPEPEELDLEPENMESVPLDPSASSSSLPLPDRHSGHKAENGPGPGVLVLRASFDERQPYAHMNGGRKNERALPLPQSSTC
Experimental: Preparation of total cell lysates, Western blot analysis, and immunoprecipitation were performed according to methods described in our previous report (Morgillo et al., 2006).
LN686 cells were treated with increasing concentrations of cixutumumab for 6 h, and then stimulated with 100 ng/ml IGF-1 for 30 min.

[1] = test system: Src and FAK phosphorylation; assay: Fluorescent immunostaining of pSrc and pFAK; type: cell-based, human
Excerpt: The present inventors reconfirmed the western blot analysis results in which Src and FAK phosphorylation was increased due to cixutumumab in the presence of IGF-1 by fluorescent immunostaining. Cultured LN686 cells in UAPs with cixutumumab alone or in combination with IGF-1 or an integrin β3 neutralizing antibody, treated with IGF-1 to fix, and then Src and FAK phosphorylation was confirmed. […] Such an action of the cixutumumab was abolished by the IGF-1 or integrin β3 neutralizing antibody, and therefore it was reconfirmed that the action of cixutumumab for inducing the Src and FAK phosphorylation was mediated by integrin β3 in the presence of IGF-1.
According to the Previous study, a modified integrin β3 expression vector was prepared by substituting an amino acid sequence (CYDMKTTC, residues 177-184) of the integrin β3 essential for the IGF-1 bond with an amino acid sequence (CTSEQNC, residues 187-193) of integrin β1 at a corresponding position. An empty vector or a modified integrin β3 expression vector was transfected into FADU cells. These cells were plated, and cultured along with cixutumumab (25 μg/ml) alone or in combination with IGF-1 or an integrin β3 neutralizing antibody for 4 h. After the culture, IGF-1 […] was treated for 1 hour, and the cells were recovered, washed with PBS, and fixed with 10% formalin for 2 h. […]

[2] = test system: LN686, FADU, and OSC19 cells; assay: Cell counting in 3D-mimic 2D culture (PCP or UAP); type: cell-based, human
Experimental: Cells were cultured in 96-well poly(poly-2-hydroxyethyl methacrylate [HEMA])-coated plates (PCPs) or ultra-low attached plates (UAPs). Control IgG1 (25 μg/ml), cixutumumab (25 μg/ml), PP2 (10 μM), and an integrin β3 neutralizing antibody B3A (10 μg/ml) were diluted in culture media containing 10% FBS or IGF-1 and treated alone or in combination. To examine the effect on cancer cell proliferation, a 3-(4,5-dimethylthiazol-2-yl)-2,5-diphenyltetrazolium bromide (MTT) or 3-(4,5-dimethylthiazol-2-yl)-5-(3-carboxymethoxyphenyl)-2-(4-sulfophenyl)-2H-tetrazolium (MTS) assay was performed, and to evaluate the effect on anchorage-independent colony formation, a soft agar colony formation assay was performed according to a method in our previous report (Morgillo et al., 2006).
The PCPs were prepared according to a previously reported method (Fukazawa et al., 1995). In brief, tissue culture plates were collated twice with poly-(HEMA) (10 mg/ml in 95% ethanol) at 37° C. and then washed with phosphate-buffered saline (PBS) several times.
Since cell growth rates could be different under each set of culture conditions, the present inventor counted the cells at distinct culture periods and depicted the results in FIG. 6. The values were represented as mean±standard deviation (SD), and a statistical significance was evaluated using two-sided Student t test (*P<0.05; **P<0.01).

**Q.** Which results are given for “cixutumumab: humanized mAb targeting IGF-1R, provided by ImClone Systems”?
**A.** IGF-1-induced IGF-1R phosphorylation (IGF-1R): markedly inhibited; also recorded: concentration-dependent inhibitory effect; IGF-1-induced Src and FAK phosphorylation in cell membrane ([1]; LN686 cells adhered to ECM-coated coverslip): did not suppress or somewhat increased; Src and FAK phosphorylation (immunostaining) ([1]; LN686 cells in UAPs, in the presence of IGF-1): enhanced phosphorylation; growth rates vs control cells ([2]; LN686 and FADU cells): no difference; growth rates vs control cells ([2]; OSC19 cells): significantly slower growth rates
